US11434240B2, “TYK2 inhibitors and uses thereof” (Nimbus Lakshmi, Inc., priority 2015, dated 2022)

Columns and labels:
JAK2 (Invitrogen) kinase = JAK2 (Invitrogen) kinase (Homo sapiens (Human), UniProt O60674); assay: JAK2 radioactive kinase assay; type: biochemical; details: ATP at 10 μM
Protocol: Peptide substrate, [KKSRGDYMTMQIG], (20 μM) is prepared in reaction buffer (20 mM Hepes pH 7.5, 10 mM MgCl2, 1 mM EGTA, 0.02% Brij35, 0.02 mg/mL BSA, 0.1 mM […], 2 mM DTT, 1% DMSO. TYK2 (Invitrogen) kinase is added, followed by compounds in DMSO. ^33PATP is added to initiate the reaction with ATP at 10 μM. Kinase reaction is incubated for 120 min at room temp and reactions are spotted onto P81 ion exchange paper (Whatman #3698-915), and then washed extensively in 0.75% phosphoric acid, prior to reading the radioactivity counts. For JAK2 (Invitrogen) kinase assay the peptide substrate poly[Glu:Tyr](4:1), 0.2 mg/ml is used, in the reaction carried out the same as for TYK2.

[1] = system: JAK2-pSTAT5 (GM-CSF induced pSTAT5); assay: GM-CSF induced pSTAT5 in human PBMC; type: cell-based; details: 20 min, 5 ng/mL GM-CSF for 20 minutes, legend words it as IC50
Protocol: (§1) Human PBMC are isolated from buffy coat and are stored frozen for assays as needed. Cells for assay are thawed and resuspended in complete media containing serum, then cells are diluted to 1.67 E6 cells/ml so that 120 ul per well is 200,000 cells. 15 ul of compound or DMSO is added to the well at the desired concentrations and incubated at 1 hr at 37 C. 15 ul of stimulus (final concentration of 1.7 ng/mL IL-12) is added for 30 minutes prior to pSTAT4 and total STAT4 analysis using cell lysates prepared and analyzed by MSD reagents as per manufacturer protocol. The final DMSO concentration of compound in the assay is 0.1%.
Cells are prepared for analysis as in the above procedure and 15 ul of GM-CSF (final concentration 5 ng/mL) is added for 20 minutes prior to pSTAT5 and total STAT5 analysis using cell lysates prepared and analyzed by MSD reagents as per manufacturer protocol. The final DMSO concentration of compound in the assay is 0.1%.

[2] = system: Tyk2-pSTAT4 (IL-12 induced pSTAT4); assay: IL-12 induced pSTAT4 in human PBMC; type: cell-based; details: 0.5 h, 1.7 ng/mL IL-12 for 30 minutes, legend words it as IC50
Protocol: as §1

Chain of JAK2 (Invitrogen) kinase (O60674 whole entry): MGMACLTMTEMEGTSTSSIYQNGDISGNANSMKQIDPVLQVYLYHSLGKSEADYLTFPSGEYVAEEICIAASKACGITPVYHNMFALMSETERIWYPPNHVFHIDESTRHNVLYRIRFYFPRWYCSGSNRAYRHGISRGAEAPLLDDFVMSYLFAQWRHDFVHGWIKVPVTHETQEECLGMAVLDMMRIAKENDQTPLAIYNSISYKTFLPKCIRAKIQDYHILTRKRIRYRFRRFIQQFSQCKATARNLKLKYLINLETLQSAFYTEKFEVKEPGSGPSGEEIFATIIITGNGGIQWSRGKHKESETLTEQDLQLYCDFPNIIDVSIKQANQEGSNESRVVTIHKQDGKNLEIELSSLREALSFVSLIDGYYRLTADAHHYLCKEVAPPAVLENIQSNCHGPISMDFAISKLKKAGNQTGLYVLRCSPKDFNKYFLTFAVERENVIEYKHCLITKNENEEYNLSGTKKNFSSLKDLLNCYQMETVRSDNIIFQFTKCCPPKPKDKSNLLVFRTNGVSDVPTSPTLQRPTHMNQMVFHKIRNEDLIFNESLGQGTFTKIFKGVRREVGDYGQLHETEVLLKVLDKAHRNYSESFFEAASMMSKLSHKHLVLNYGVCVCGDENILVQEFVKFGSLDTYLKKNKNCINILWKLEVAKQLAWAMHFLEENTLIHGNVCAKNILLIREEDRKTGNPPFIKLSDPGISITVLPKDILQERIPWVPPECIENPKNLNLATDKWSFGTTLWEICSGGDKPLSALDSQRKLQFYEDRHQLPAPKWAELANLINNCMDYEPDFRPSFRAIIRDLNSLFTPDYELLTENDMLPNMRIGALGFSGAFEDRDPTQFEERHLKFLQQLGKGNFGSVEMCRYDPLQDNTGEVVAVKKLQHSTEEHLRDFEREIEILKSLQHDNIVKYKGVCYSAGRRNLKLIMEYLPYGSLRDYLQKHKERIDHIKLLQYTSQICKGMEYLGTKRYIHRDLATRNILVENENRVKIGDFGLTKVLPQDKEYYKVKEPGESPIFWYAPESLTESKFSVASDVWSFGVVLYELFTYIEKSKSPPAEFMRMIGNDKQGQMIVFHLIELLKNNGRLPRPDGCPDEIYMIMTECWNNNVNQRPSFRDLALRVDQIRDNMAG

CO[C@@H]1CN(c2ccn(-c3cc(-c4c(F)cccc4C#N)nc4c3C(=O)NC4)n2)C[C@@H]1O [I-154, 3-fluoro-2-(4-(3-((3S,4R)-3-hydroxy-4-methoxypyrrolidin-1-yl)-1H-pyrazol-1-yl)-5-oxo-6,7-dihydro-5H-pyrrolo[3,4-b]pyridin-2-yl)benzonitrile]
Ki (JAK2 (Invitrogen) kinase): 0.1 to 10 nM

CN1CCN(c2ccn(-c3cc(-c4c(F)cccc4F)nc4c3C(=O)NC4)n2)CC1 [I-5, 2-(2,6-difluorophenyl)-4-(3-(4-methylpiperazin-1-yl)-1H-pyrazol-1-yl)-6,7-dihydro-5H-pyrrolo[3,4-b]pyridin-5-one]
EC50 [1]: > 2000 nM

N#Cc1cccc(F)c1-c1cc(-n2ccc(N3CCC(N4CCOCC4)CC3)n2)c2c(n1)CNC2=O [I-59, 3-fluoro-2-(4-(3-(4-morpholinopiperidin-1-yl)-1H-pyrazol-1-yl)-5-oxo-6,7-dihydro-5H-pyrrolo[3,4-b]pyridin-2-yl)benzonitrile]
EC50 [2]: 100 to 2000 nM
EC50 ([1]; Homo sapiens, PBMC): 100 to 2000 nM
